Converted amounts (≈) assume the structure as drawn. Like-named read-outs stand apart in the source and are kept apart here. Marks after values point to notes of the source that are not given here.
How the values were obtained:
[1] = WST-8 cell viability assay after PDT, Met-5a; type: cell-based; conditions: human, Met-5a cells, light, read-out: cell viability relative to untreated control
Method: (§1) Porphyrin PS stock solutions 4, 5, and 6 (Scheme 1) were prepared by dissolving a 5 mg aliquot in 500 μL of 1 M NaOH. This was added to 9.5 mL of complete media to prepare a 500 μg/mL stock solution. Stock solutions were filter sterilized using a Millipore PES membrane filter (Merck, Watford, UK). Working solutions were prepared immediately before PDT experiments and consisted of six treatments: an untreated control, vehicle control, and four porphyrin concentrations (5, 10, 15, and 20 μg/mL).
(§2) Cells were detached using a trypsin/EDTA solution (Lonza). Trypan blue (0.4% v/v) exclusion was used to count viable cells before seeded into 96-well plates (Nunc) at a density of 5 × 10^3 cells per well in 200 μL of complete RPMI. Cell culture plates were seeded approximately 24 h before PDT. Media was aspirated and replaced with equal volumes of the respective PS treatment. For the purpose of background subtraction, PS treatments were also added to wells without cells. Following 3 h of incubation (37 °C, 5% CO2:95% air), plates were irradiated for 15 min on a 15 W light box (UVP, Cambridge, UK). Experiments performed parallel to dark-treated control plates.
(§3) Cell viability was assessed by the colorimetric WST-8 assay. Following 24 h of incubation (37 °C, 5% CO2:95% air), 10 μL of WST-8 was added to each cell-containing well of the 96-well plates. The plates were incubated for 3 h (37 °C, 5% CO2:95% air) and then analyzed at 450 nm using a Clariostar Plate Reader (BMG Labtech, Ortenberg, Germany). Corrected absorbance was calculated in each case by subtraction of the media only controls. Finally, percentage cell viability was expressed relative to untreated control values.

[2] = WST-8 cell viability assay after PDT, MSTO-211H; type: cell-based, human; conditions: human, MSTO-211H cells, dark; for viability at 48 h, 5 μg/mL: read-out: cell viability relative to untreated control
Method: as §1, §2
as §3, with “Following 24 h of incubation (37 °C, 5% CO2:95% air), 10 μL of WST-8 was added to each cell-containing well of the 96-well plates.” left out

MSTO-211H cells [3] = assay: WST-8 cell viability assay after PDT, MSTO-211H; type: cell-based, human; conditions: Homo sapiens, 5 μg/mL, light, 48 h, read-out: cell viability relative to untreated control
Method: as §1, §2
as §3, with “Following 24 h of incubation (37 °C, 5% CO2:95% air), 10 μL of WST-8 was added to each cell-containing well of the 96-well plates.” left out

Met-5a cells = assay: Annexin V-FITC/PI cell death analysis by flow cytometry, Met-5a; type: cell-based, human; conditions: for EC50: Homo sapiens, read-out: EC50 (50% reduction in viable cell populations), PDT activity
Method: (§4) Cells were harvested in accordance with methods previously described and seeded into 24-well plates (Nunc, London, UK) at a density of 2 × 10^5 cells per well in 1000 μL of complete RPMI; the culture plates were seeded approximately 24 h before PDT. Cell treatment and irradiation was performed in accordance with methods previously described.
(§5) Annexin V-FITC/PI staining and cell death analysis was performed at both 24- and 48 h time points following PDT (representative flow cytometry dot-plots from Annexin V-FITC/PI-stained cells in Supplementary Materials-Figure S2). Non-adherent cells were harvested through the removal of culture medium and adherent monolayers were trypsinized and returned to the removed media. Harvested cells were removed from media via centrifugation (5 min, 400× g) (VWR Mega Star, Leicestershire, UK) and resuspended in Annexin V Binding Buffer. Following a second centrifugation, Annexin V Binding Buffer was discarded, and cell pellets were resuspended in the residual volume. Cells were stained with Annexin V-FITC (5 μL) and PI (10 μL) and incubated at room temperature for 15 min protected from light. 200 µL of Annexin V Binding Buffer was added prior to immediate analysis using a BD FACSCalibur (BD Biosciences, Wokingham, UK) and data from 10,000 events was collected. Flow cytometry results were analyzed using FlowJo™ v10.8 Software (BD Life Sciences). Quadrants consisted of Viable (Annexin V-FITC^−/PI^−), early stage apoptotic (Annexin V-FITC^+/PI^−) and late-stage apoptotic/necrotic (Annexin V-FITC^+/PI^+) populations.

[4] = UV/vis absorbance spectroscopy in DMSO, water and 1 M HCl (stacking, aqueous solubility); type: physicochemical; conditions: absorption spectra in water vs DMSO and 1 M HCl
Method: UV/vis absorbance spectroscopy in DMSO, water and 1 M HCl. For each of the porphyrins 5, 6, and 7, 5 mg, was dissolved in 30 µL of 1 M NaOH H this was diluted to 5 mL with distilled to give stock solutions of concentrations 0.926 mM, 0.88 mM and 0.77 mM, respectively. In a quartz 96 well plate, 20 µL was added to a well and diluted to a volume of 320 µL with either DMSO, water or 1 M HCl.

[5] = WST-8 cell viability assay after PDT, NCI-H28; type: cell-based, human; conditions: human, NCI-H28 cells, NCI-H28, 5 μg/mL, dark, read-out: cell viability relative to untreated control
Method: as §1
as §2, with “Experiments performed parallel to dark-treated control plates.” left out
(§6) Cell viability was assessed by the colorimetric WST-8 assay. […] The plates were incubated for 3 h (37 °C, 5% CO2:95% air) and then analyzed at 450 nm using a Clariostar Plate Reader (BMG Labtech, Ortenberg, Germany). Corrected absorbance was calculated in each case by subtraction of the media only controls. […]

NCI-H28 cells [6] = assay: WST-8 cell viability assay after PDT, NCI-H28; type: cell-based, human; conditions: Homo sapiens; NCI-H28, 5 μg/mL, light, 48 h; read-out: cell viability relative to untreated control
Method: as §1
as §2, with “Experiments performed parallel to dark-treated control plates.” left out
as §6

[7] = Annexin V-FITC/PI cell death analysis by flow cytometry, MSTO-211H; type: cell-based, human; conditions: human, MSTO-211H cells, dark, 48 h, read-out: viable cells
Method: as §4, §5

MSTO-211H cells [8] = assay: as above; type: cell-based, human; conditions: light; for EC50: read-out: EC50 (50% reduction in viable cell populations), PDT activity
Method: as §4, §5

[9] = Annexin V-FITC/PI cell death analysis by flow cytometry, NCI-H28; type: cell-based, human; conditions: human, NCI-H28 cells, read-out: viable cells
Method: as §4, §5

NCI-H28 cells [10] = assay: as above; type: cell-based, human; conditions: light; for EC50: read-out: EC50 (50% reduction in viable cell populations), PDT activity
Method: as §4, §5

MSTO-211H cells [11] = assay: Cellular localization by high content fluorescence microscopy; type: cell-based, human; conditions: 24 h incubation
Method: Cells were harvested in accordance with methods previously described and seeded into 24-well plates (Nunc, London, UK) at a density of 25,000 treated with porphyrin working solutions made up from the porphyrin PS stock solutions and incubated for 24 h. The cells were visualized using a Cytation 5 (Agilent Technologies, Cheadle, UK) high content microscopy platform at 20× magnification.

[12] = Homo sapiens, 24 h, 24 h time point
[13] = Homo sapiens, 48 h, 48 h time point
[14] = Homo sapiens, NCI-H28, 24 h, NCI-H28, 24 h time point
[15] = Homo sapiens, NCI-H28, 48 h, NCI-H28, 48 h time point
[16] = 20 μg/mL, time point not stated

Work on `O=C(O)CCCCOc1cccc(-c2c3nc(c(-c4cccc(OCCCCC(=O)O)c4)c4ccc([nH]4)c(-c4cccc(OCCCCC(=O)O)c4)c4nc(c(-c5cccc(OCCCCC(=O)O)c5)c5ccc2[nH]5)C=C4)C=C3)c1` [C5SHU] yielded a viability at 24 h, 5 μg/mL [1] of about 28%, a viability at 48 h, 5 μg/mL [1] of about 11% and a viability at 48 h, 5 μg/mL [2] of 100%. For the same compound, the viability at 48 h, 15 μg/mL ([2]; 15 μg/mL, read-out: dark toxicity (cell viability)) was 30%, the viability at 48 h, 20 μg/mL ([2]; 20 μg/mL, read-out: dark toxicity (cell viability)) was 26% and the viability at 5 µg/mL (MSTO-211H cells [3]) was 22%. For the same compound, the cell death (Met-5a cells; 24 h, all dose concentrations) was “no significant cell death”, the dark toxicity (Met-5a cells; 24 h, all dose concentrations) was “negligible dark toxicity” and the dark toxicity (Met-5a cells; 48 h) was “Negligible dark toxicity”. The “predominant mode of cell death” value (Met-5a cells; 48 h, light) was “necrosis”, the EC50 (Met-5a cells; 24 h time point, light) was over 20 µg/mL and the EC50 (Met-5a cells; 48 h time point, light) was 5.1 ± 1 µg/mL (≈ 4.73 µM). For the same compound, the “stacking in aqueous solutions” value [4] was “least evidence of stacking”, the viability at 48 h, 5 μg/mL [5] was 116% and the viability at 5 µg/mL (NCI-H28 cells [6]) was 16%. It also gave a viability at 48 h, 15 μg/mL ([7]; 15 μg/mL) of 63.6%, a viability at 48 h, 20 μg/mL ([7]; 20 μg/mL) of 46.1% and an apoptotic cell population (MSTO-211H cells [8]; 10 μg/mL, 24 h) of 49%. The necrotic cell population (MSTO-211H cells [8]; 10 μg/mL, 24 h) was 34%, the “EC50 (50% reduction in viable cell populations), PDT activity” value (MSTO-211H cells [8]; 24 h time point) was 7.8 ± 3 µg/mL (≈ 7.23 µM) and the EC50 (MSTO-211H cells [8]; [12]) was 7.7 µg/mL (≈ 7.13 µM). The EC50 (MSTO-211H cells [8]; [13]) was 2.8 ± 1.5 µg/mL (≈ 2.59 µM), the viability ([9]; NCI-H28, dark, unchanged with porphyrin dose) was about 95% and the EC50 (NCI-H28 cells [10]; [14]) was 7.8 µg/mL (≈ 7.23 µM). The EC50 (NCI-H28 cells [10]; [15]) was 6 ± 1 µg/mL (≈ 5.56 µM), the apoptotic cell population (NCI-H28 cells [10]; NCI-H28, 10 μg/mL, 24 h) was 16% and the necrotic cell population (NCI-H28 cells [10]; NCI-H28, 10 μg/mL, 24 h) was 53%. For the same compound, the “EC50 (50% reduction in viable cell populations), PDT activity” value (NCI-H28 cells [10]; NCI-H28, 24 h time point) was 7.7 ± 1 µg/mL (≈ 7.13 µM).
For `O=C(O)CCCCCOc1cccc(-c2c3nc(c(-c4cccc(OCCCCCC(=O)O)c4)c4ccc([nH]4)c(-c4cccc(OCCCCCC(=O)O)c4)c4nc(c(-c5cccc(OCCCCCC(=O)O)c5)c5ccc2[nH]5)C=C4)C=C3)c1` [C6SHU], the viability at 48 h, 5 μg/mL [2] was 119%, the viability at 5 µg/mL (MSTO-211H cells [3]) was 38% and the EC50 (Met-5a cells; 24 h time point, light) was over 20 µg/mL. The EC50 (Met-5a cells; 48 h time point, light) was over 20 µg/mL, the apoptotic cell population (MSTO-211H cells [8]; [16]) was 23% and the necrotic cell population (MSTO-211H cells [8]; [16]) was 50%. It also gave a viability at 20 µg/mL (MSTO-211H cells [8]; Homo sapiens, 20 μg/mL, time point not stated, read-out: viable cell population) of 20%, an EC50 (MSTO-211H cells [8]; [12]) of 14 µg/mL (≈ 12.3 µM) and an EC50 (MSTO-211H cells [8]; [13]) of 14 ± 4 µg/mL (≈ 12.3 µM). For the same compound, the EC50 (NCI-H28 cells [10]; [14]) was over 20 µg/mL, the EC50 (NCI-H28 cells [10]; [15]) was over 20 µg/mL and the IC50 (NCI-H28 cells [10]; Homo sapiens, NCI-H28, NCI-28 as printed, time point not stated, read-out: IC50, PDT effect) was over 20 µg/mL. The viability at 20 µg/mL (NCI-H28 cells [10]; Homo sapiens, NCI-H28, 20 μg/mL, time point not stated, read-out: viable cells) was 59%.
In the case of `O=C(O)CCCCCCOc1cccc(-c2c3nc(c(-c4cccc(OCCCCCCC(=O)O)c4)c4ccc([nH]4)c(-c4cccc(OCCCCCCC(=O)O)c4)c4nc(c(-c5cccc(OCCCCCCC(=O)O)c5)c5ccc2[nH]5)C=C4)C=C3)c1` [C7SHU], the cellular localization (MSTO-211H cells [11]) is reported as “localize in the cytosolic region”, the viability at 24 h, 5 μg/mL [1] is reported as 66% and the viability at 48 h, 5 μg/mL [1] is reported as 30%. It also gave an EC50 (Met-5a cells; 24 h time point, light) of over 20 µg/mL, an EC50 (Met-5a cells; 48 h time point, light) of over 20 µg/mL and an EC50 (MSTO-211H cells [8]; [12]) of 9.6 ± 3 µg/mL (≈ 8.06 µM). The EC50 (MSTO-211H cells [8]; [13]) was 7.7 ± 2 µg/mL (≈ 6.46 µM), the viability at 48 h, 10 μg/mL ([9]; NCI-H28, 10 μg/mL, 48 h) was 75% and the EC50 (NCI-H28 cells [10]; [14]) was over 20 µg/mL. The EC50 (NCI-H28 cells [10]; [15]) was over 20 µg/mL and the “EC50 (50% reduction in viable cell populations), PDT activity” value (NCI-H28 cells [10]; NCI-H28, 24 h time point) was >20 ^a μg/mL.
